Measured values: patent US11977028B2, “Mechanical-bond-induced exciplex fluorescence” (Northwestern University, priority 2020, dated 2024)
Values belong to the compound of their own block, whether it stands above or below them.

How the values were obtained:
[1] = Absorption and photoluminescence spectroscopy in solution; assay type: physicochemical; settings: for absorption band (higher-energy band of the anthracene moiety) / absorption, vibronic peak of the anthracene moiety (lower-energy): high dilution; for emission band, vibronic peaks of the anthracene moiety: fluorescence spectroscopy, data not shown; for τ (emission lifetime): 405 nm excitation
Text: The close proximity of the anthracene units in the mechanically interlocked cyclophanes was expected to give rise to remarkable optical properties distinct from those of the free cyclophanes. We explored the absorption and fluorescence properties of all compounds at high dilution (4×10^−7 M) to avoid reabsorption processes^40 and aggregation effects.^17 All of the optical parameters are summarized in Tables 1 and 2. Initially, we explored the influence of the pyridine/pyridinium units on the optical properties of both ^2,6AnBox^4+ and ^9,10AnBox^4+ cyclophanes. The presence of two pyridinium units within the linker dramatically affect the optical properties of the anthracene moiety. Although ^2,6AnBPY (FIG. 5C) and ^9,10AnBPY display^41 characteristic vibronic peaks associated with the anthracene moiety at 290 and 400 nm, ^2,6AnDB^2+ and ^9,10AnDB^2+ display a shift of the band at 290 to 330 nm (FIG. 5A) and the emergence of a new featureless broad band at 450 nm associated with CT from the anthracene moiety to the pyridinium unit. It is noteworthy that phenylene-bridged bipyridyl linkers (ExBIPY) display^35 a single absorption peak at 325 nm in MeCN, while the anthracene moiety leads to the emergence of some push-pull D-A character.
All reagents were purchased from commercial suppliers (Aldrich or Fisher) and used without further purification. Anthracene derivatives, 9,10-bis(4-pyridyl)anthracene (^9.^10AnBPY) and 2,6-bis(4-pyridyl)anthracene (^2,6AnBPY) were synthesized following^1,2 reports in the literature. All reactions and manipulations were carried out under a dry N2 atmosphere using standard Schlenk. Thin-layer chromatography (TLC) was performed on silica gel 60 F254 TLC plates (Merck). Column chromatography was carried out using CombiFlash® Automation Systems (Teledyne ISCO) employing both normal phase (RediSep Rf Gold® Normal-Phase Silica) and reverse phase (RediSep Rf Gold® Reversed-phase C18). […] All the spectra were baseline-corrected with a MeCN blank sample. The photoluminescence spectra of all samples were obtained with a Fluorolog-3 spectrafluorometer (Horiba Jobin Yvon) in a 2-mm quartz cuvette with 3-nm slit width and a front-phase geometry. The time-correlated single photon counting setup is described elsewhere.^3 Nuclear magnetic resonance (NMR) spectra were recorded on a Bruker Avance III 500 and 600 MHz spectrometers, with working frequencies of 500 and 600 MHz (′H NMR) and 125 MHz (^13C NMR), respectively. Chemical shifts are reported in ppm relative to the signals corresponding to the residual non-deuterated solvents (CD3CN: δ1−1=1.94 ppm and δC=1.32 ppm). High-resolution mass spectra (HRMS) were measured on an Agilent 6210 Time of Flight (TOF) LC-MS, using an ESI source, coupled with Agilent 1100 HPLC stack, using direct infusion (0.6 mL min ^−1). The binding constants were determined using this link: website http://supramolecular.org.^4

[2] = 1H NMR titration of guests into the ^2,6AnBox^4+ cavity (binding constant); settings: 1H NMR titration in CD3CN; for association constant Ka: without salt; for binding constant Ka: high concentration of salt (saturated with KPF6, 140 mM)
Text: The cavity of ^2,6AnBox^4+ is able to bind an anthracene molecule in a face-to-face manner as a result of [π . . . π] interactions. The formation of anthracene⊂^2,6AnBox^4+ (An⊂^2,6AnBox^4+) was confirmed by ^1H NMR titration in CD3CN. […] Further evidence for the formation of the 1:1 complex (anthracene⊂^2,6AnBox^4+) came from XRD analysis. […] It is remarkable that, upon addition of the anthracene guest to the cavity of ^2,6AnBox^4+, a tubular superstructure is formed along the c-axis, whereas along the b-axis, face-to-face [π . . . π] stacks form between the anthracene units. Apparently, the long-range [π . . . π] distances of 3.5 Å between the anthracene units are superstructure-directing in anthracene⊂^2,6AnBox^4+ instead of the anthracene-pyridinium DA interactions. The formation of the anthracene⊂^2,6AnBox^4+ complex implies that [π . . . π] interactions between the anthracene units can be sufficient to overcome the Coulombic repulsion and form the homo[2]catenane, ^2,6AnHC.8PF6.
Preparation of ^2,6AnHC.8PF6 was achieved following two synthetic procedures which consisted of mixing ^2,6AnBox.4PF6 with its precursors ^2,6AnDB.2PF6, and ^2,6AnBPY in the absence (Protocol I) or presence (Protocol II) of tetrabutylammonium hexafluorophosphate (TBAPF6). See Scheme 6. Our attempts to prepare ^2,6AnHC.8PF6 following Protocol I produced very low yields (<5%) of the catenane.
In order to evaluate whether the addition of salt would enhance the synthesis of the rigid ^2,6AnHC.8PF6 homo[2]catenane, we investigated the effects of the addition of tetrabutylammonium hexafluorophosphate (TBAPF6) salt on the formation of the ^2,6AnDB^2+⊂^2,6AnBox^4+ inclusion complex. […] Remarkably, the change in color of the solution from yellow to red implies^38 an increase in the strength of the ^2,6AnDB^2+⊂^2,6AnBox^4+ host-guest complex. In order to estimate the magnitude of the association constant between ^2,6AnDB^2+ and ^2,6AnBox^4+, we prepared (FIG. 2A-2C, Scheme 8) an anthracene-based dicationic model DM^2+. […] Consequently, the efficiency of the catenane synthesis is also found to be sensitive to the addition of TBAPF6. At a salt concentration of 250 mM, the homo[2]catenane ^2,6AnHC.8PF6 was prepared by mixing ^2,6AnBox.4PF6, ^2,6AnDB.2PF6, and ^2,6AnBPY in a 1:2:2 molar ratio in MeCN resulting in an isolated yield of up to 40%. See Scheme 2. The ^1H NMR spectrum of ^2,6AnHC^8+ was recorded at room temperature in CD3CN. Only three signals are observed which can be assigned to the pyridinium, methylene, and phenylene protons. All other resonances associated with the anthracene units disappear or are broadened at room temperature. In the temperature dependent 41 NMR spectra (data not shown), the signals for the anthracene protons reappear at low temperature and have been assigned based on 2D ROESY NMR spectroscopic measurements. These experiments confirm the dynamic nature of the homo[2]catenane in which the two mechanically interlocked rings undergo relative co-conformational changes at room temperature. The catenane was also characterized by high-resolution mass spectrometry (HR-MS). A characteristic peak corresponding to [M-3 PF6]^3+ is present in the mass spectrum (data no shown) at m/z of 823.7819 which compares well with the calculated value for m/z of 823.7814.
All reagents were purchased from commercial suppliers (Aldrich or Fisher) and used without further purification. Anthracene derivatives, 9,10-bis(4-pyridyl)anthracene (^9.^10AnBPY) and 2,6-bis(4-pyridyl)anthracene (^2,6AnBPY) were synthesized following^1,2 reports in the literature. All reactions and manipulations were carried out under a dry N2 atmosphere using standard Schlenk. Thin-layer chromatography (TLC) was performed on silica gel 60 F254 TLC plates (Merck). Column chromatography was carried out using CombiFlash® Automation Systems (Teledyne ISCO) employing both normal phase (RediSep Rf Gold® Normal-Phase Silica) and reverse phase (RediSep Rf Gold® Reversed-phase C18). […]

[3] = reported in the literature; cited from earlier work
MIA PACA2 cancer cells = test: Cell growth / toxicity by phase contrast imaging over 48 hours; assay type: cell-based; settings: any concentration tested
Method: Cells were cultured for 4 hours then treated with the compounds at a range of concentrations. Upon treatment, cells were placed in a BioTek LionheartFX system, where they were imaged every 20 minutes for 48 hours, under standard culture conditions (37° C., 5% CO2). Phase contrast images were processed and analyzed with BioTek Gen5 analysis software to identify cell number at the start and end of the culture time. There was no significant difference in percent growth either between the two compounds or between the different concentrations and the untreated (0 mM) control.
Cells were grown in standard DMEM (supplemented with 10% Fetal Bovine Serum and 1% Penicillin-Streptomycin, supplier=Corning). Cells were seeded into imaging coverglass chamber 40 hours prior to treatment. Compounds were resuspended in deionized H2O then diluted to the final concentration in media. Cells were treated with compounds for 6 hours prior to imaging.

absorption band (higher-energy band of the anthracene moiety) ([1]; MeCN): 290 nm
absorption, vibronic peak of the anthracene moiety (lower-energy) ([1]; MeCN): 400 nm
emission band, vibronic peaks of the anthracene moiety [1]: 440 nm
Structure (SMILES): c1cc(-c2ccc3cc4cc(-c5ccncc5)ccc4cc3c2)ccn1 [^2,6AnBPY, 2,6-bis(4-pyridyl)anthracene, reference compound]

Φ (PL quantum yield) ([1]; 4 × 10^−7 M, MeCN): 1.3%
λabs ([1]; 4 × 10^−7 M, MeCN): 415 nm
λem ([1]; 4 × 10^−7 M, MeCN): 566 nm
τ (emission lifetime) ([1]; 4 × 10^−7 M, MeCN): 8.7 ns
Stokes shifts (δ) ([1]; DMF, 4 × 10^−7 M): 6793 cm⁻¹
λabs ([1]; DMF, 4 × 10^−7 M): 402 nm
λem ([1]; DMF, 4 × 10^−7 M): 576 nm
λexc ([1]; DMF, 4 × 10^−7 M): 414 nm
Stokes shifts (δ) ([1]; EtOH, 4 × 10^−7 M): 6502 cm⁻¹
λabs ([1]; EtOH, 4 × 10^−7 M): 409 nm
λem ([1]; EtOH, 4 × 10^−7 M): 574 nm
λexc ([1]; EtOH, 4 × 10^−7 M): 418 nm
Stokes shifts (δ) ([1]; H2O, 4 × 10^−7 M): 6199 cm⁻¹
λabs ([1]; H2O, 4 × 10^−7 M): 419 nm
λem ([1]; H2O, 4 × 10^−7 M): 566 nm
λexc ([1]; H2O, 4 × 10^−7 M): 419 nm
Stokes shifts (δ) ([1]; Me2SO, 4 × 10^−7 M): 6966 cm⁻¹
λabs ([1]; Me2SO, 4 × 10^−7 M): 403 nm
λem ([1]; Me2SO, 4 × 10^−7 M): 570 nm
λexc ([1]; Me2SO, 4 × 10^−7 M): 408 nm
Stokes shifts (δ) ([1]; MeCN, 4 × 10^−7 M (Table 2)): 6371 cm⁻¹
λabs ([1]; MeCN, 4 × 10^−7 M (Table 2)): 410 nm
λem ([1]; MeCN, 4 × 10^−7 M (Table 2)): 566 nm
λexc ([1]; MeCN, 4 × 10^−7 M (Table 2)): 416 nm
Stokes shifts (δ) ([1]; MeOH, 4 × 10^−7 M): 6282 cm⁻¹
λabs ([1]; MeOH, 4 × 10^−7 M): 402 nm
λem ([1]; MeOH, 4 × 10^−7 M): 565 nm
λexc ([1]; MeOH, 4 × 10^−7 M): 417 nm
Structure (SMILES): c1ccc2c3c4ccccc4c(c2c1)-c1cc[n+](cc1)Cc1ccc(cc1)C[n+]1ccc(cc1)-c1c2ccccc2c(c2ccccc12)-c1cc[n+](cc1)Cc1ccc(cc1)C[n+]1ccc-3cc1 [^9,10AnBox^4+]

Φ (PL quantum yield) ([1]; 4 × 10^−7 M, MeCN): 7.0%
λabs ([1]; 4 × 10^−7 M, MeCN): 453 nm
λem ([1]; 4 × 10^−7 M, MeCN): 542 nm
τ (emission lifetime) ([1]; 4 × 10^−7 M, MeCN): 10 ns
charge transfer (CT) absorption band ([1]; MeCN): 450 nm
absorption band (higher-energy band of the anthracene moiety) ([1]; MeCN): 330 nm
association constant Ka [2]: 42 M⁻¹
Structure (SMILES): BrCc1ccc(C[n+]2ccc(-c3ccc4cc5cc(-c6cc[n+](Cc7ccc(CBr)cc7)cc6)ccc5cc4c3)cc2)cc1 [^2,6AnDB^2+]
concentration dependence of excimer/exciplex emission ([1]; from high concentration to high dilution (10^−8 M)): absence of excimer emission at high concentration

charge transfer (CT) absorption band ([1]; MeCN): 450 nm
absorption band (higher-energy band of the anthracene moiety) ([1]; MeCN): 330 nm
Structure (SMILES): BrCc1ccc(C[n+]2ccc(-c3c4ccccc4c(-c4cc[n+](Cc5ccc(CBr)cc5)cc4)c4ccccc34)cc2)cc1 [^9,10AnDB^2+]

association constant Ka [2]: 125 M⁻¹
Structure (SMILES): c1ccc2cc3ccccc3cc2c1 [anthracene, reference compound]
emission lifetime [3]: ~18 ns

absorption band (higher-energy band of the anthracene moiety) ([1]; MeCN): 290 nm
absorption, vibronic peak of the anthracene moiety (lower-energy) ([1]; MeCN): 400 nm
emission band, vibronic peaks of the anthracene moiety [1]: 440 nm
Structure (SMILES): c1ccc2c(-c3ccncc3)c3ccccc3c(-c3ccncc3)c2c1 [^9,10AnBPY, 9,10-bis(4-pyridyl)anthracene, reference compound]

Structure (SMILES): [Cl-].[Cl-].[Cl-].[Cl-].c1cc2ccc1C[n+]1ccc(cc1)-c1ccc3cc4cc(ccc4cc3c1)-c1cc[n+](cc1)Cc1ccc(cc1)C[n+]1ccc(cc1)-c1ccc3cc4cc(ccc4cc3c1)-c1cc[n+](cc1)C2 [^2,6AnBox⋅4Cl]
toxicity to the cells (MIA PACA2 cancer cells): Neither the catenane (^2,6AnHC.8Cl) nor the cyclophane (^2,6AnBox⋅4Cl) are toxic to the cells at any concentration tested

Structure (SMILES): c1ccc(C[n+]2ccc(-c3ccc4cc5cc(-c6cc[n+](Cc7ccccc7)cc6)ccc5cc4c3)cc2)cc1 [DM^2+]
binding constant Ka [2]: 611 M⁻¹
association constant Ka [2]: 40 M⁻¹

Structure (SMILES): c1ccc(C[n+]2ccc(-c3ccc4cc5cc(-c6ccncc6)ccc5cc4c3)cc2)cc1 [MM^+]
binding constant Ka [2]: 540 M⁻¹
association constant Ka [2]: 102 M⁻¹
